# Tested on: HL60 cells
# Assay: ADCC (LDH release) of CD33 antibody CD33-1 with PBMC effector cells pre-treated with de-methylating agents
# Type: cell-based, human
# Settings: for Relative Cytolysis (%): ADCC of CD33-1 on HL60 target cells, human PBMC effector cells pre-treated with 100 nM de-methylating agent for 3 to 6 days, E:T 25:1, relative to untreated PBMC (100), 3 independent assays; for impact on ADCC of mAb 33-1: effector cells (PBMC) treated with 100 nM for 3 to 6 days, compared with untreated effector cells
# Procedure: The ability CD33 antibodies to mediate antibody-dependent cell-mediated cytotoxicity (ADCC) in the presence of effector cells pre-treated with demethylating agents is assessed using HL60 cells as target cells and human PBMCs as effector cells.
# Preparation of target cells (HL-60 acute myeloid leukemia, DSMZ #ACC3)
# An aliquot of the cell culture at a cell density between 1.5×10^6/m1 and 1.8×10^6/m1 and growing in the log-phase is centrifuged (200×g, i.e. 1000 rpm) for 10 min. Cells are washed once with washing medium (RPMI 1640 w/o L-glutamine) and pelleted (200×g, i.e. 1000 rpm; 10 min). Cell pellet is suspended in assay medium (1% BSA; AlbuMAX II (Gibco 11021-037)) and cell count is determined. Cell concentration is adjusted to 2×10^5/ml.
# Approximately 100 ml whole blood drawn from healthy donors is used for the isolation of PBMC. 10 ml whole blood are diluted 1:3.6 with 26 ml HBSS (Gibco 14170-088; Paisley, Scotland) in a 50 ml tube. 18 ml diluted whole blood is layered on top of 12 ml Lymphoprep (Nycomed Pharma AS 1053980) in a 50 ml tube and centrifuged at 370×g (1400 rpm) for 35 min. The mononuclear cells from the interface are aspirated and washed first with HBSS (750×g, i.e. 1900 rpm; 10 min), then a second time with HBSS (300×g, i.e. 1200 rpm; 10 min) and finally with HBSS (160×g, i.e. 900 rpm; 10 min). The pelleted cells are gently suspended in culture medium/assay medium (10% heat-inactivated human AB serum in RPMI 1640 w/o L-glutamine) using a pipette and the cell count is determined in the cell counter. The PBMC concentration is adjusted to 1×10^7/ml.
# The freshly isolated PBMC (5×10^5/m1) are pre-treated with de-methylating agents in culture medium (RPMI 1640 w/o L-glutamine supplemented with 10% human AB serum and decitabine or 5-azacytidine at a final concentration of 100 nM) in a tissue culture flask (75 cm^2) at 37° C. in CO2 incubator for 3 to 6 days. De-methylating agent treated PBMC are separated from cell debris on a Lymphoprep gradient. The purified de-methylating agent treated PBMC are suspended in culture medium/assay medium ata concentration of 1×10^7/ml.
# For all tested cell lines an E:T ratio of 25:1 is used. The co-cultivation of effector cells with target cells in presence of test antibody is performed in quadruplicates in 96-well round-bottom microtiter plates (Costar #3799) in a final volume of 200 μl assay medium per well consisting of 10% human AB serum and 1% BSA in RPMI in 1:1 ratio. In each experimental run two plates are assayed in parallel. First effector cells (PBMC cells in 100 μl 10% human AB serum in RPMI per well) are plated, followed by target cells (in 50 μl 1% BSA in RPMI per well) and antibody solution (candidate antibody diluted in 50 μl 1% BSA in RPMI). As a control, effector cells are cultivated in assay medium alone (effector cell control) and target cells are cultivated either in assay medium alone (spontaneous lysis) or in assay medium supplemented with 1% Triton X-100 (maximal lysis). The co-culture is incubated at 37° C. in a humid CO^2 incubator for 3 to 4 hours.
# At the end of the incubation cells are removed from the culture medium by centrifugation (200×g, i.e. 1000 rpm; 10 min) at room temperature. Cell free supernatants (100 μl/well) are transferred into corresponding wells of a 96-well flat-bottom plate (Costar #3595). To determine the LDH activity in these supernatants 100 μl reaction mixture (freshly mixed 250 μl catalyst with 11.25 ml dye solution) are added to each well and incubated 30 min at room temperature in the dark. Then the absorbance is measured as described below.
# Cytotoxicity Detection Kit (LDH Roche #11 644 793 001) is used to determine ADCC activity. The assay is based on the measurement of LDH enzyme activity released from plasma membrane-damaged cells. LDH released into the culture supernatants reduces the tetrazolium salt from the kit to formazan. […]
SMILES,Relative Cytolysis (%),Relative Cytolysis (%) (listed as 5-azacytidine),impact on ADCC of mAb 33-1,Relative Cytolysis (%) (listed as decitabine)
"Nc1ncn([C@@H]2O[C@H](CO)[C@@H](O)[C@H]2O)c(=O)n1 [5-Azacitidine, 4-amino-1-β-D-ribofuranosyl-1,3,5-triazin-2(1H)-one]",107,98,did not significantly impact,–
"Nc1ncn([C@H]2C[C@H](O)[C@@H](CO)O2)c(=O)n1 [Decitabine, 4-Amino-1-(2-deoxy-β-D-erythro-pentofuranosyl)-1,3,5-triazin-2(1H)-one]",98,–,did not significantly impact,107

# Reference: US20180064811A1, “PHARMACEUTICAL COMBINATIONS COMPRISING CD33 ANTIBODIES AND DE-METHYLATING AGENTS” (Boehringer Ingelheim International GmbH, priority 2013, published 2018)
